Measured values published in PubChem BioAssay (NCI).
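Here, GI50 denotes the concentration required for 50% inhibition of growth. TGI is the concentration that stops growth completely.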

Key:
Test in all cases: NCI-60 cell line screen, 384-well format
A498 renal = test system: A498 renal
BT-549 breast = test system: BT-549 breast
CCRF-CEM leukemia = test system: CCRF-CEM leukemia
HCT-116 colon = test system: HCT-116 colon
HS 578T breast = test system: HS 578T breast
KM12 colon = test system: KM12 colon
MDA-MB-231 breast = test system: MDA-MB-231 breast
RPMI-8226 leukemia = test system: RPMI-8226 leukemia
SF-268 CNS = test system: SF-268 CNS
SK-MEL-2 melanoma = test system: SK-MEL-2 melanoma
SK-MEL-5 melanoma = test system: SK-MEL-5 melanoma
SNB-19 CNS = test system: SNB-19 CNS
UO-31 renal = test system: UO-31 renal

For `C=CC(=O)N1CCC(CNc2ncnc(N)c2-c2ccc(Oc3ccccc3)cc2)CC1`, the GI50 (A498 renal) was 17.2 µM, the TGI (A498 renal) was 37 µM and the GI50 (BT-549 breast) was 14.1 µM. For the same compound, the TGI (BT-549 breast) was 28.6 µM, the GI50 (CCRF-CEM leukemia) was 17.2 µM and the TGI (CCRF-CEM leukemia) was 31 µM. The GI50 (HCT-116 colon) was 21.1 µM, the TGI (HCT-116 colon) was 48.3 µM and the GI50 (HS 578T breast) was 11.4 µM. For the same compound, the TGI (HS 578T breast) was 24.5 µM, the GI50 (KM12 colon) was 23 µM and the TGI (KM12 colon) was 47.6 µM. It also gave a GI50 (MDA-MB-231 breast) of 20.4 µM, a TGI (MDA-MB-231 breast) of 52.6 µM and a GI50 (RPMI-8226 leukemia) of 9.92 µM. It also gave a TGI (RPMI-8226 leukemia) of 22.3 µM, a GI50 (SF-268 CNS) of 17 µM and a TGI (SF-268 CNS) of 37.9 µM. It also gave a GI50 (SK-MEL-2 melanoma) of 20.5 µM, a TGI (SK-MEL-2 melanoma) of 36.9 µM and a GI50 (SK-MEL-5 melanoma) of 16.1 µM. It also gave a TGI (SK-MEL-5 melanoma) of 30.6 µM, a GI50 (SNB-19 CNS) of 23.4 µM and a TGI (SNB-19 CNS) of 71.7 µM. The GI50 (UO-31 renal) was 22.3 µM and the TGI (UO-31 renal) was over 100 µM.
